Assay [1] addresses T1, Dcp1/2 decapping enzyme (SpDcp1/2) (Schizosaccharomyces pombe, UniProt O13828).
T1 construct: made in house
T1 sequence (O13828 1-243 limits assumed): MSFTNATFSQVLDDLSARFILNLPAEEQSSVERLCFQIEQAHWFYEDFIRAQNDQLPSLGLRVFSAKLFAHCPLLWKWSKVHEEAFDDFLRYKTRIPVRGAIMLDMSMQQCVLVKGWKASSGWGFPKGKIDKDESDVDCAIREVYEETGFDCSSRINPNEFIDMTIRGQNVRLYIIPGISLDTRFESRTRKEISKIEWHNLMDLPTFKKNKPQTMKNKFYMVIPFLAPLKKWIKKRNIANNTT
T1 sequence (Q9P805 1-127 partner): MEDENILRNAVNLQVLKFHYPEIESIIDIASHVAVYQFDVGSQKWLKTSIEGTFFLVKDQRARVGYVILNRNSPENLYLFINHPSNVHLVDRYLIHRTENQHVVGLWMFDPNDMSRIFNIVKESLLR
The experiment in a line: Susceptibility of short capped RNAs to degradation with the Dcp1/2 enzyme. The class given is biochemical. To be noted: RNA capped with the analog; 3.5 nM Dcp1/2, time point 15 min, normalized to 0′ time. The text has this: Test 4. Susceptibility Study of Short RNA Molecules Comprising Cap Analogs at the 5′ End to Degradation with the Dcp1/2 Enzyme.
The aim of this study was to check whether incorporation of selected 5′-phosphothioate cap analogs to 5′ end of RNA could influence susceptibility of thus prepared transcripts towards Dcp1/2 decapping enzyme activity. Schizosaccharomyces pombe recombinant protein in the form of a heterodimer Dcp1/2 was obtained as described previously (Floor, Jones et al. 2010). The trancripts utilized in this assay were obtained by transcription in vitro using RNA SP6 polymerase (New England BioLabs). Annealed oligonucleotides: […] (SEQ ID NO.: 1), and […] (SEQ ID NO: 2) were used as a template in in vitro transcription, the oligonucleotides comprising the promoter sequence for SP6 polymerase (ATTTAGGTGACACTATAGA (SEQ ID NO: 3)) allow to obtain 35 nt long RNAs having a sequence of […] (SEQ ID NO: 4), however 5′ end capped RNAs are 36 nt long. Typical in vitro transcription reaction was performed in volume 20 μl and was incubated in 40° C. for 2 hours and contained the following: 1U SP6 polymerase, 1 U RiboLock RNase Inhibitor (ThermoFisher Scientific), 0.5 mM ATP/CTP/UTP, 0.125 mM GTP, 1.25 mM dinucleotide cap analog and 0.1 μM template. Following 2 hours incubation, 1U DNase I (Ambion) was added to the reaction mixture and incubation was continued for 30 min in 37° C., after that EDTA was added to 25 mM final concentration. Obtained RNAs were purified using RNA Clean & Concentrator-25 (Zymo Research). Then the quality of the synthesized RNA was determined on a denaturating 15% polyacrylamide gel. The concentration of the RNA was in turn evaluated spectrophotometrically. […] RNA having a cap at the 5′ end was 26 nt long. The reaction of cleaving the 3′ ends was as follows: 1 μM of RNA was incubated with 1 μM of DNazyme 10-23 in a mixture containing 50 mM MgCl2 and 50 mM Tris-HCl pH 8.0 for 1 hour in 37° C. (Coleman et al., 2004).
For enzymatic tests 20 ng of each RNA was used, which were incubated with 3.5 nM Dcp1/2 enzyme in buffer containing 50 mM Tris-HCl pH 8.0, 50 mM NH4Cl, 0.01% NP-40, 1 mM DTT, and 5 mM MgCl2. Reactions were performed at 37° C. in the final volume of 25 μl. The reaction was stopped after 0, 5, 15 and 30 min by adding an equal amount of a mixture of 5 M urea, 44% formamide, 20 mM EDTA, 0.03% bromophenol blue, 0.03% xylene cyanol. Reaction products were resolved on denaturing 15% polyacrylamide gels, after the electrophoretic separation was completed, the gel was stained with SYBR Gold (Invitrogen) and visualized using a Storm 860 PhosphorImager (GE Healthcare). Quantification of the obtained results was performed with ImageQuant software (Molecular Dynamics). Representative results of this assay were presented on FIG. 8, FIG. 9 and also in Table 6.

The test system of assay [2] is rabbit reticulocyte lysate. The experiment in a line: Translational efficiency of capped Renilla luciferase mRNAs in rabbit reticulocyte lysate. Particulars: Renilla luciferase mRNA capped with the analog; normalized to m^7GpppG-capped mRNA; biological triplicates. The class given is biochemical. The method, then:
Test 5. Study on the Effect of the Presence of Novel Cap Analogs on Translational Efficiency of mRNAs in Rabbit Reticulocyte Lysate.
The aim of this study was to check the effect of introducing novel cap analogs at the 5′ end of mRNAs on translation efficiency. For this purpose series of Renilla luciferase encoding mRNAs, and differing in the cap structure at the 5′ end were prepared. The transcripts used for this test were obtained by in vitro transcription reaction using SP6 RNA polymerase. As the template for the in vitro transcription a PCR product was used, prepared using primers […] (SEQ ID NO: 6) and […] (SEQ ID NO: 7) and the hRLuc-pRNA2(A)128 plasmid (Williams et al. 2010). PCR reaction thus conducted allowed to introduce promoter sequence for SP6 polymerase upstream of the sequence encoding Renilla luciferase. The transcription reaction itself was similar to the short RNA synthesis described above (Test 4). The reaction was conducted for 2 hours in 20 μl in 40° C. and contained the following: 1U SP6 polymerase, 1 U RiboLock RNase Inhibitor (ThermoFisher Scientific), 0.5 mM ATP/CTP/UTP, 0.125 mM GTP, 1.25 mM dinucleotide cap analog and […] of a template. Following 2 hours incubation, 1U DNase I (Ambion) was added and incubation was continued for 30 min in 37° C., after that EDTA was added to 25 mM final concentration. Obtained mRNAs were purified using NucleoSpin RNA Clean-up XS (Macherey-Nagel). Quality of the synthetized RNA was checked on a denaturing 15% polyacrylamide gel. The RNA concentrations were determined spectrophotometrically.
An in vitro translation reaction was performed in rabbit reticulocyte lysate (RRL, Promega) in conditions determined for cap-dependent translation (Rydzik et al., 2009). A typical reaction mixture (10 μl) contained: 40% RRL lysate, 0.01 mM mixture of amino acids (Promega), 1.2 mM MgCl2, 170 mM potassium acetate and a Renilla luciferase encoding mRNA with an appropriate cap analog at the 5′ end, the mixture being incubated in 37° C. for 1 hour. Four different concentrations of mRNAs: 0.1 ng/μl, 0.25 ng/μl, 0.5 ng/μl, 0.75 ng/μl were used in the experiment. Activity of synthesized luciferase was measured using Dual-Luciferase Reporter Assay System (Promega) in a microplate reader Synergy H1 (BioTek). Obtained results were analyzed in Origin (Gambit) software, and theoretical curve was fitted to experimental data, wherein the slope of obtained curve represents translation efficiency. Representative data were presented on FIG. 10, whereas average translation efficiency obtained for biological triplicates is presented in Table 6.

Assay [3] concerns mice with SMA. To be noted: reported by Van Meerbeke, Gibbs et al.; cited from earlier work.
In assay [4] the target is T2, human DcpS enzyme (hDcpS) (Homo sapiens, UniProt Q96C86).
T2 construct: made in house
T2 sequence (Q96C86 1-337): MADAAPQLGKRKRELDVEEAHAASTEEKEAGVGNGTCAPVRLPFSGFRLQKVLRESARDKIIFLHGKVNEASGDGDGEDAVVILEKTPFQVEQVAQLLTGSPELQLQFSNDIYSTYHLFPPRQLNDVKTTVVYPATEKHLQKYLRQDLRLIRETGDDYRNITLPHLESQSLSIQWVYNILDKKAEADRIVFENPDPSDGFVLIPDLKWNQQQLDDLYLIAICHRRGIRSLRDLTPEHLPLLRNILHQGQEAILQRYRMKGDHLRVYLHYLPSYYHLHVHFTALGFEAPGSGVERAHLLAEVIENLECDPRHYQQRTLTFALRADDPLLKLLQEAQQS
Nature of the assay: Susceptibility of cap analogs to degradation by DcpS enzyme (RP-HPLC). Particulars: cap analog 20 μM, hDcpS 100 nM, RP-HPLC. The class given is biochemical. As to the method: Test 1. The Susceptibility Study of Analogs to Degradation by DcpS Enzyme.
The aim of the test was to check if new 5′-thiophosphate cap analogs are hydrolyzed by human DcpS enzyme (hDcpS). Recombinant human protein encoding DcpS enzyme was expressed as described previously (Kowalska, Lewdorowicz et al. 2008). The susceptibility of new analogs to hDcpS hydrolysis is tested in 50 mM Tris-HCl buffer containing 200 mM KCl and 0.5 mM EDTA. Reaction mixture includes the tested cap analog (20 μM) and hDcpS enzyme (100 nM) in 400 μl of buffer. At the appropriate intervals 100 μl sample is collected from the reaction mixture. Sample is incubated at 98° C. for 2.5 min, and then cooled to 0° C. and analyzed on RP-HPLC under conditions described in general informations. In tests also commercially available inhibitor of DcpS was tested, the compound RG3039 (no. 000) (https://www.mda.org/quest/fda-approves-phase-1-clinical-trial-rg3039-sma), GppSG (no. 19), GpppSG (no. 20), as well m^7GpppG (no. 0) and m^7Gpp (no. 00) as controls. Exemplary results obtained are shown on FIG. 5 and Table 5.

We go through seven molecules from patent US11066436B2, “5′-phosphorothiolate mRNA 5′-end (cap) analogs, mRNA comprising the same, method of obtaining and uses thereof” (Uniwersytet Warszawski, priority 2016, dated 2021).

With `Nc1nc2c(ncn2[C@@H]2O[C@H](COP(=O)(O)OP(=O)(O)OP(=O)(O)OC[C@H]3O[C@@H](n4cnc5c(=O)[nH]c(N)nc54)[C@H](O)[C@@H]3O)[C@@H](O)[C@H]2O)c(=O)[nH]1` [GpppG], in assay [1], the Dcp1/2 susceptibility is 0. Further, in assay [2], the relative translation efficiency is 0.05 ± 0.01.

With `Nc1nc(N)c2c(OCC3CCN(Cc4c(Cl)cccc4Cl)CC3)cccc2n1` [No. 000], the “motor function in mice with SMA” value in assay [3] is recorded as “improves motor function”.

Consider `Cn1c[n+]([C@@H]2O[C@H](COP(=O)(O)OP(=O)([O-])OP(=O)(O)OC[C@H]3O[C@@H](n4cnc5c(=O)[nH]c(N)nc54)[C@H](O)[C@@H]3O)[C@@H](O)[C@H]2O)c2nc(N)[nH]c(=O)c21` [No. 0], for which the DcpS susceptibility result in assay [4] is on record as “hydrolyzable”. In assay [1], this molecule yielded a Dcp1/2 susceptibility of 0.69. Further, the relative translation efficiency in assay [2] stood at 1.00.

In assay [1], `COC1C(O)[C@@H](CSP(=O)([O-])OP(=O)(O)OP(=O)(O)OC[C@H]2O[C@@H](n3cnc4c(=O)[nH]c(N)nc43)C(O)C2O)O[C@H]1n1c[n+](C)c2c(O)nc(N)nc21` (some centres unmarked) [No. 26, P1-(2′-O-methyl-7-methyl-5′-deoxy-5′-thioguanosin-5′-yl)-P3-guanosin-5′-yl triphosphate] displayed a Dcp1/2 susceptibility of 0.07. Further, the relative translation efficiency in assay [2] was found to be 1.73 ± 0.24.

In assay [1], `COC1C(O)[C@@H](COP(=O)(O)OP(=O)(O)OP(=O)([O-])SC[C@H]2O[C@@H](n3cnc4c(=O)[nH]c(N)nc43)C(O)C2O)O[C@H]1n1c[n+](C)c2c(O)nc(N)nc21` (some centres unmarked) [No. 38, P1-(2′-O-methyl-7-methyl-guanosin-5′-yl)-P3-(5′-deoxy-5′-thioguanosin-5′-yl) triphosphate] displayed a Dcp1/2 susceptibility of 0.52. Also, the relative translation efficiency in assay [2] is given as 2.23 ± 0.31.

Regarding `CO[C@@H]1[C@H](O)[C@@H](COP(=O)(O)OP(=O)([O-])OP(=O)(O)OC[C@H]2O[C@@H](n3cnc4c(=O)[nH]c(N)nc43)[C@H](O)[C@@H]2O)O[C@H]1n1c[n+](C)c2c(O)nc(N)nc21` [m2^7,2′-oGpppG], in assay [1], the Dcp1/2 susceptibility was 0.52. Moreover, the relative translation efficiency in assay [2] is listed as 1.56 ± 0.14.

As to `COC1C(O)C(COP(=O)(O)OP(=O)(S)OP(=O)(O)OCC2OC(n3cnc4c(=O)[nH]c(N)nc43)C(O)C2O)OC1n1c[n+](C)c2c(=O)[nH]c(N)nc21` (centres unmarked) [m2^7,2′-oGppspG D2], the Dcp1/2 susceptibility in assay [1] is 0.43. In addition, the relative translation efficiency in assay [2] was 3.45 ± 0.42.
